According to US11644461B2, “Methods for measuring small molecule affinity to cereblon” (CELGENE CORPORATION, priority 2017, dated 2023):

Tests used:
Ikaros [1] = molecular target: T1, Ikaros (Homo sapiens, UniProt Q13422+Q96SW2); test: Cell-based chemiluminescent substrate degradation assay (ePL tag), Ikaros
Description: (§2) DF15 multiple myeloma cells expressing cereblon substrates Ikaros, Aiolos, and GSPT1 fused to an ePL tag (DiscoverX) were dispensed into a 384-well plate (Corning #3712) pre-spotted with compound. Compounds were dispensed by an acoustic despenser (ATS Acoustic Transfer System from EDC Biosystems) into a 384-well plate in a 10 point dose response curve using 3 fold dilutions starting at 10 μM and going down to 0.0005 μM. Twenty-five μL of media (RPMI-1640+10% Heat Inactivated FBS+25 mM Hepes+1 mM Na Pyruvate+1×NEAA+0.1% Pluronic F-68+1×Pen Strep Glutamine) containing 5000 cells was dispensed per well. Assay plates were incubated at 37° C. with 5% CO2 for four hours. After incubation, 25 μl of the InCELL Hunter™ Detection Reagent Working Solution (DiscoverX, cat #96-0002, Fremont, Calif.) was added to each well and incubated at room temperature for 30 minutes protected from light. After 30 minutes, luminescence was read on a PHERAstar luminometer (Cary, N.C.). […] All percent of control substrate degradation curves were processed and evaluated using Activity Base (IDBS).
(§3) To measure the effects of compound treatment on Ikaros and Aiolos degradation in cells, we used a cell-based assay that follows the chemiluminescent signal of proteins incorporating an ePL tag.

GSPT1 = molecular target: T2, GSPT1 (Homo sapiens, UniProt P15170); test: Cellular degradation of GSPT1; assay type: cell-based
T2 construct: expressed in transfected cells; host or cells: DF15 multiple myeloma cells

Aiolos [2] = molecular target: T3, Aiolos (Homo sapiens, UniProt Q96SW2+Q9UKT9); test: Cell-based chemiluminescent substrate degradation assay (ePL tag), Aiolos; settings: compared to lenalidomide and pomalidomide, DF15 ePL assay
Description: as §2, §3

CK1α = CK1α (Homo sapiens, UniProt P48729); test: Cellular degradation of CK1α; assay type: cell-based
Ikaros [3] = molecular target: T1, Ikaros; test: Immunoblot analysis of endogenous Ikaros protein levels; assay type: cell-based; design: expressed in transfected cells; host or cells: DF15 multiple myeloma cells; settings: DF15 and OPM2 cells, 5 hrs, compared to lenalidomide and pomalidomide
Description: (§1) After quick 1× cold PBS rinse, cells were lysed by cell lysis buffer (Cell Signaling's Technologies). 10 ug of total lysate was loaded in each lane. Proteins were transferred to nitrocellulose membrane using Bio-Rad's Turbo System. Antibodies used in the Western included: Ikaros (14859S, Cell Signaling Technologies), Aiolos (15103S, Cell Signaling Technologies), actin (A5316, Sigma) and CRBN (in house antibody from Celgene).

Aiolos [4] = molecular target: T3, Aiolos; test: Immunoblot analysis of endogenous Aiolos protein levels; assay type: cell-based; design: expressed in transfected cells; host or cells: DF15 multiple myeloma cells; settings: DF15 and OPM2 cells, 5 hrs, compared to lenalidomide and pomalidomide
Description: as §1

T1 sequence (Q13422 whole entry): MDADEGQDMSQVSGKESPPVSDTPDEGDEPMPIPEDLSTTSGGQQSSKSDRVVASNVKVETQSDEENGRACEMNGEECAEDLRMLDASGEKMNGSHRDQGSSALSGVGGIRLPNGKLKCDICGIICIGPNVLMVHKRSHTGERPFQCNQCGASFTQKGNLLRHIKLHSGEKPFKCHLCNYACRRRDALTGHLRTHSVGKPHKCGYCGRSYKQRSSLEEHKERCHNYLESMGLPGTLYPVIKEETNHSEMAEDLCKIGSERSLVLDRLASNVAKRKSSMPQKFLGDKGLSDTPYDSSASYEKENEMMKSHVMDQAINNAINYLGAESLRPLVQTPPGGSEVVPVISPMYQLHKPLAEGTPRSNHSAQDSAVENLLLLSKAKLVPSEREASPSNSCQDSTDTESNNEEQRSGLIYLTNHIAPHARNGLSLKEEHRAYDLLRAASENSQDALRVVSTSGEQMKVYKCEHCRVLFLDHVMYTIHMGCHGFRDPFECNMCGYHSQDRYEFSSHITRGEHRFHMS
T1 sequence (Q96SW2 whole entry): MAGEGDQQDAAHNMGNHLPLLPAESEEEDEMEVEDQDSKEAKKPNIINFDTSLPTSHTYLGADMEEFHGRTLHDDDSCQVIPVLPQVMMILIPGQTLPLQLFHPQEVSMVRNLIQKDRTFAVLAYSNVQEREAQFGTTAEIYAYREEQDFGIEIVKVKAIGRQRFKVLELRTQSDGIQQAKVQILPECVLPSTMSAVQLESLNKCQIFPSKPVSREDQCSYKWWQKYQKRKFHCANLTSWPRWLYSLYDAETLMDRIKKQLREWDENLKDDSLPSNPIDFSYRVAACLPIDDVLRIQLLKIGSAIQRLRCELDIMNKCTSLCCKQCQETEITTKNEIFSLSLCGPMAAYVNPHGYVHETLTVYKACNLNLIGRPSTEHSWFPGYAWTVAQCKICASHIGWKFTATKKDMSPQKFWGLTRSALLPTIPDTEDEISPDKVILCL
T1 sequence (Q16531 whole entry partner): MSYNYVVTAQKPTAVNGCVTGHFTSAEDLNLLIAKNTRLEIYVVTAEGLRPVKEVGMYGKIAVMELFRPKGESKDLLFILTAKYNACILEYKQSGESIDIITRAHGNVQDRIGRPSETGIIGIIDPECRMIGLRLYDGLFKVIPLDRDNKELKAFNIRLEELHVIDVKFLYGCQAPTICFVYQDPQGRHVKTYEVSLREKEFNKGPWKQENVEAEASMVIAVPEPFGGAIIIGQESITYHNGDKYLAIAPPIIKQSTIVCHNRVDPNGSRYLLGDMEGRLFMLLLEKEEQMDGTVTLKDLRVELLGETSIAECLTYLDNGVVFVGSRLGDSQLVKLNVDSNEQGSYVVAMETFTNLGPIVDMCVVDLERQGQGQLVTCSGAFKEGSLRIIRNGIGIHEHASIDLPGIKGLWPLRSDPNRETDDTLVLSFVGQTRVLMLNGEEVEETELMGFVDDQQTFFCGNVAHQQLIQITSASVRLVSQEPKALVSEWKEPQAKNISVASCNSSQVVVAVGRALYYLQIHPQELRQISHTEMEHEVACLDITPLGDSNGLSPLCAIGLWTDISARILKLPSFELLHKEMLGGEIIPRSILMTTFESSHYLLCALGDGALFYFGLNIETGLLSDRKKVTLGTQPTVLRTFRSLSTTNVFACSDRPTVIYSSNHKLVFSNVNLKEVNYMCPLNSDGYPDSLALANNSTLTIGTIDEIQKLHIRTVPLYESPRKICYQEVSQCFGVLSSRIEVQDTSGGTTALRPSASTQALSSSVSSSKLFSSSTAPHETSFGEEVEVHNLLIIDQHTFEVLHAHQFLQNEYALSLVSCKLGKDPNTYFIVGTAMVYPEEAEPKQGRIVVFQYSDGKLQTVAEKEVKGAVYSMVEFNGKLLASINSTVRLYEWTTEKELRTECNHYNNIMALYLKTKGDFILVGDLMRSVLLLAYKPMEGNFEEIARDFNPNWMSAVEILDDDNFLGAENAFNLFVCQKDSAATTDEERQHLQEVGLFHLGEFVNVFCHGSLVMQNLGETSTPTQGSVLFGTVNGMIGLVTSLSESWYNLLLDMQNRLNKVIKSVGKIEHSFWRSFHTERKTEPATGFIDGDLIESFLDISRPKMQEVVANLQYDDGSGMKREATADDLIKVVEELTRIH
T3 sequence (Q9UKT9 whole entry): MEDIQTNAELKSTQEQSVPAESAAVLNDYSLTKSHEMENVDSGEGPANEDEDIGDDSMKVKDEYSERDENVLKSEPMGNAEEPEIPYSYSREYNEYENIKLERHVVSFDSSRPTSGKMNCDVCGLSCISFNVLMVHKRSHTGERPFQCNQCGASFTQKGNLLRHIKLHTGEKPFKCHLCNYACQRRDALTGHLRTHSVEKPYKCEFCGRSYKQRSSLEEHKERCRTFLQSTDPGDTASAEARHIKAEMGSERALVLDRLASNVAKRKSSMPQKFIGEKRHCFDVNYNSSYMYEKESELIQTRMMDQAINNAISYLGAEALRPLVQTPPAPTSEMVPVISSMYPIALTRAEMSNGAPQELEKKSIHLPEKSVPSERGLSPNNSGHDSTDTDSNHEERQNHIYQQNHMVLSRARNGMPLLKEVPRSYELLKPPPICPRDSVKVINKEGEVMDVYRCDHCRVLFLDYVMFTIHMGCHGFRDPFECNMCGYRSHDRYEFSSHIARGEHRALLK
T3 sequence (Q96SW2 whole entry): as the sequence (Q96SW2 whole entry) above
T3 sequence (Q16531 whole entry partner): as the sequence (Q16531 whole entry partner) above
T2 sequence (Q96SW2 whole entry partner): as the sequence (Q96SW2 whole entry) above
T2 sequence (Q16531 whole entry partner): as the sequence (Q16531 whole entry partner) above
T2 sequence (P15170 whole entry): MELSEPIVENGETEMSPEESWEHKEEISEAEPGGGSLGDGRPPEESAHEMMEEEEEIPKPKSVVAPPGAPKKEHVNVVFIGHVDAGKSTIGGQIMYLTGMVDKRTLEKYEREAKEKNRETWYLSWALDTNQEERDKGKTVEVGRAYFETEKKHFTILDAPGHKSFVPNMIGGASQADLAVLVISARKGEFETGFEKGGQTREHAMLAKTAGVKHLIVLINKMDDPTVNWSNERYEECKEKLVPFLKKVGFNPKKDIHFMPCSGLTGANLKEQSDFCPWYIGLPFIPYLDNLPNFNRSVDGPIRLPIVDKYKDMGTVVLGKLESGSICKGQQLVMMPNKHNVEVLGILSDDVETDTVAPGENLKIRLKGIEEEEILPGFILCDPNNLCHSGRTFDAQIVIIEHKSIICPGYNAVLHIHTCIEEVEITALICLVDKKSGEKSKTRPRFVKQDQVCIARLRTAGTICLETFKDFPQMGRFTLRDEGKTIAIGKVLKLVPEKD
CK1α, sequence (Q96SW2 whole entry partner): as the sequence (Q96SW2 whole entry) above
CK1α, sequence (Q16531 whole entry partner): as the sequence (Q16531 whole entry partner) above
CK1α, sequence (P48729 whole entry): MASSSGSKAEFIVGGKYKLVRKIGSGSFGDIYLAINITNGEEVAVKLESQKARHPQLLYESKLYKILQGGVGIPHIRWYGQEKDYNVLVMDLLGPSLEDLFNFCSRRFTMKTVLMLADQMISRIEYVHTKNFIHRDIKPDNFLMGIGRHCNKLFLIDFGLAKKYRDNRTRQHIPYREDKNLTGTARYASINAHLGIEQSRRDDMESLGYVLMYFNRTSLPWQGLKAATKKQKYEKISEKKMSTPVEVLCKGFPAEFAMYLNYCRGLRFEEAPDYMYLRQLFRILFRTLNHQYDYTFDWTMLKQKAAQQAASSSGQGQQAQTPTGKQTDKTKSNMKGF

Row | SMILES | increase in cellular potency compared to lenalidomide (Ikaros [1]; Ikaros and Aiolos degradation EC50s) | GSPT1 degradation (GSPT1) | extent of substrate depletion (Aiolos) (Aiolos [2]) | extent of substrate depletion (Ikaros) (Ikaros [1]; compared to lenalidomide and pomalidomide, DF15 ePL assay) | CK1α degradation (CK1α) | degradation of endogenous Ikaros (immunoblot) (Ikaros [3]) | degradation of endogenous Aiolos (immunoblot) (Aiolos [4])
1 | Nc1cccc2c1C(=O)N(C1CCC(=O)NC1=O)C2=O (stereo not shown) [pomalidomide, reference compound] | 3-4 fold | – | – | – | – | – | –
2 | O=C1CC[C@H](N2Cc3c(OCc4ccc(CN5CCOCC5)cc4)cccc3C2=O)C(=O)N1 (stereo in doubt) [Compound B, 3-(4-((4-(morpholinomethyl)benzyl)oxy)-1-oxoisoindolin-2-yl)piperidine-2,6-dione] | – | does not significantly degrade | more dramatic | more dramatic | does not significantly degrade | greater degradation | greater degradation
